Source: patent publication US20220273709A1, “DEVELOPMENT OF THERAPY FOR IMPROVING MYOCARDIAL CONTRACTION AND METHOD FOR INHIBITING CARDIOMYOCYTE DEATH” (KYUSHU UNIVERSITY, NATIONAL UNIVERSITY CORPORATION, priority 2019, published 2022)

Columns and labels:
[1] = system: mice with DOX cardiomyopathy; assay: Effect of αGalCer on DOX mice: cardiac function and inflammatory cytokines; type: in vivo; conditions: Days 7 and 14
[2] = system: Balb/c mice; assay: Difference between α-GalCer administration and α-GalCer/DC administration (western blotting of Stat1, Stat6); type: in vivo; conditions: only α-GalCer administered, 4 days
Experimental: The differences in expression levels of proteins Stat1 and Stat6 and degrees of phosphorylation in a case where only α-GalCer was administered and in a case where DC was administered as a carrier (that is, α-GalCer/DC was administered, the number of administered cells: 3×10^6) were evaluated by western blotting.
In the test, α-GalCer alone or α-GalCer/DC was administered to the Balb/c mice, and the expression level of each protein in the myocardium 4 days after the administration was evaluated by western blotting.

[3] = system: mice with DOX cardiomyopathy; assay: Effect of αGalCer on DOX mice: cardiac function and inflammatory cytokines; type: in vivo; conditions: for apoptosis of myocardial cells (TUNEL staining) / left ventricular end-systolic dimension (LVDs) / left ventricular fractional shortening rate (FS): DOX group or GalCer+DOX group; for WH/TL and LV/TL: DOX group vs Control, GalCer+DOX group vs DOX group
Experimental: 10-week-old male C57BL/6J mice were divided into four groups of a Control group, a GalCer group, a DOX group, and a GalCer+DOX group. Hereinafter, the administration method will be described by setting the day when doxorubicin was initially administered as Day 0 (FIG. 4(a)).
PBS (phosphate buffered saline) was intraperitoneally administered (ip) and physiological saline was intravenously administered to the mice of the Control group on Day-7 (7 days before Day 0).
αGalCer (0.1 μg/g) was intraperitoneally administered (ip) to the mice of the GalCer group on Day-7, and physiological saline was intravenously administered thereto on Days 0, 2, and 4.
PBS was intraperitoneally administered (ip) to the mice of the DOX group on Day-7, and doxorubicin (6 mg/kg) was intravenously administered thereto on Days 0, 2, and 4.
αGalCer (0.1 μg/g) was intraperitoneally administered (ip) to the mice of the Galfer+DOX group on Day-7, and doxorubicin (6 mg/kg) was intravenously administered thereto on Days 0, 2, and 4.
The body weight, the blood pressure, the echocardiogram, the organ weight, the expression level of Vα14Jα18, the cardiac function, and inflammatory cytokines of each mouse at the time point of Day 14 were evaluated. Echocardiography was performed by anesthetizing mice with pentobarbital using an ultrasonic recording device EUB-8000 (trade name of Hitachi Medical Corporation). The left ventricular end-diastolic dimension and the left ventricular systolic end-systolic dimension were measured from the echo image, and the left ventricular fractional shortening rate serving as an index of the left ventricular contractility was calculated by an expression of “(left ventricular end-diastolic dimension—left ventricular systolic end-systolic dimension)left ventricular end-diastolic dimension×100”.

[4] = system: humans; conditions: systemically administered to humans; cited from earlier work
[5] = system: myocardial fibroblasts; assay: TGFβ administration to myocardial fibroblasts pretreated with IFNγ; type: cell-based
Experimental: The changes in expression levels of proteins when TGFβ was administered to myocardial fibroblasts pretreated with IFNγ were evaluated.
FIG. 39(a) is a western blot showing the expression levels of proteins (pSmad2, Smad2, pSmad3, and Smad3) when TGFβ was administered to myocardial fibroblasts pretreated with IFNγ (n=4). FIG. 39(b) is a graph quantifying the results of FIG. 39(a). The dose of IFNγ used for the pretreatment is 0, 1, 10, or 50 ng/mL, and the dose of TGFβ is 10 ng/mL. In the control group (CTL), neither IFNγ nor TGFβ was administered. Each graph is shown as a relative value in which the phosphorylation ratio (for example, pSmad2Smad2) in the CTL group is set to 1.0. When TGFβ was administered, Smad2 and Smad3 were phosphorylated, and the expression levels of pSmad2 and pSmad3 were increased.
FIG. 39(c) is a graph showing the expression levels of proteins (Ctgf, Col1a, and Col3a) when TGFβ was administered to myocardial fibroblasts pretreated with IFNγ (n=3 to 6). The dose of IFNγ used for the pretreatment is 0, 1, 10, or 50 ng/mL, and the dose of TGFβ is 10 ng/mL. Each graph is shown as a relative value in which the phosphorylation ratio (for example, pSmad2Smad2) in the CTL group is set to 1.0. In the graph, ** represents P<0.01, which is at a significant level with respect to the expression level of the CTL group.

[6] = system: male C57BL6J mice; assay: Doxorubicin-induced cardiomyopathy model mice (DOX mouse): body weight, echocardiography, NKT cells and inflammatory cytokines in myocardium; type: in vivo
Experimental: Doxorubicin (6 mg/kg) was intravenously administered to male
C57BL6J mice aged 10 to 11 weeks from the tail vein once every two days. That is, in a case where the day when doxorubicin was initially administered was set to Day 0, doxorubicin was injected on Day 2 and Day 4 (total of 3 times of administration). At each time point of Day 0, 7, 14, 21, and 28, weight measurement and echocardiography were performed to evaluate the amounts of NKT cells and the expression levels of inflammatory cytokines in the myocardium.

[7] = system: cultured myocardial cells; assay: IFN-γ stimulation of cultured myocardial cells, pPLN and p-Stat1 (SDS-PAGE); type: cell-based
Experimental: The cultured myocardial cells were stimulated by adding IFN-γ solutions with three different concentrations (1, 10, and 50 ng/mL), and changes in concentration of pPLN were evaluated by ^-the SDS-PAGE method.
The cultured myocardial cells were stimulated by adding 50 ng/mL of an IFN-γ solution, and a change in concentration of pPLN over time was evaluated by the SDS-PAGE method.

[8] = system: inflammatory cells; myocardial cells; assay: Cell death after IFNγ administration to inflammatory cells or myocardial cells; type: cell-based
[9] = system: primary cultured myocardial fibroblasts; assay: Stat expression and phosphorylation in myocardial fibroblasts treated with IFNγ, IL4 or IL10; type: cell-based; conditions: vs CTL
Experimental: The primary cultured myocardial fibroblasts were treated with IFNγ, IL4, or IL10, and each of the expression levels of proteins (Stat1, Stat6, and Stat3) and the phosphorylation thereof were evaluated.

[10] = system: primary cultured offspring rat myocardial cells; assay: Stat phosphorylation in primary cultured offspring rat myocardial cells after IFNγ, IL4 or IL10; type: cell-based
Experimental: IFNγ, IL4 or IL10 was administered to primary cultured offspring rat myocardial cells, and the changes in phosphorylation of proteins (Stat1, Stat6, and Stat3) were evaluated.

[11] = system: primary cultured myocardial fibroblasts; assay: Fibrosis gene expression in myocardial fibroblasts after IFNγ, IL4 or IL10; type: cell-based; conditions: 1, 10, and 50 ng/mL, vs non-administration group (Veh)
Experimental: The changes in expression levels of genes (Ctgf Col1a, and Col3a) involved in fibrosis after IFNγ, IL4, or IL10 was administered to primary cultured myocardial fibroblasts were evaluated in order to investigate the mechanism by which the TGF β-Smad signaling system was inhibited due to the administration of α-GalCer/DC (number of administered cells: 3×10^6).
FIG. 38 is a graph showing changes in the expression levels of genes (Ctgf, Col1a, and Col3a) after the administration of IFNγ, IL4, or IL10 to myocardial fibroblasts. IFNγ, IL4, and IL10 were respectively administered at concentrations of 1, 10, and 50 ng/mL. Rps18 was used as an intrinsic control. “Veh” in the graphs represents a non-administration group (Vehicle).

[12] = system: offspring rat myocardial cells; assay: Changes in expression levels of Angpt1 due to cytokine administration; type: cell-based; conditions: vs CTL group
Experimental: The changes in the expression levels of an angiogenic factor Angpt1 after administration of IFNγ, IL4, or IL10 to offspring rat myocardial cells were evaluated (each n=3).

[13] = doxorubicin 6 mg/kg iv Days 0, 2, 4, Days 0 to 28
[14] = IFNγ pretreatment 1, 10, or 50 ng/mL, then TGFβ 10 ng/mL

## CCCCCCCCCCCCCCCCCCCCCCCCCC(=O)N[C@@H](CO[C@H]1O[C@H](CO)[C@H](O)[C@H](O)[C@H]1O)[C@H](O)[C@H](O)CCCCCCCCCCCCCC [αGalCer, α-Galactosylceramide]
[1]
  expression level of IFNγ: increased
  expression levels of inflammatory cytokines: without decreasing
[2]
  activation reaction of Stat1 in the myocardium: extremely weak
  dose dependence of Stat1 activation: not observed
[3]
  apoptosis of myocardial cells (TUNEL staining): inhibited
[3]; Day 14
  left ventricular end-systolic dimension (LVDs): improved to the same extent as the mice in the other groups
  left ventricular fractional shortening rate (FS): improved to the same extent as the mice in the other groups
  WH/TL and LV/TL: improved
[3]; αGalCer 0.1 μg/g ip Day-7, mice with DOX cardiomyopathy, Day 14
  increase of expression level of Vα14Jα18: approximately 10.6 times
[4]
  liver damage: serious liver damage

## TGFβ
[5]; TGFβ 10 ng/mL, no pretreatment
  expression levels of Ctgf, Col1a, and Col3a: increased
  expression levels of pSmad2 and pSmad3: increased

## COc1cccc2c1C(=O)c1c(O)c3c(c(O)c1C2=O)C[C@@](O)(C(=O)CO)C[C@@H]3O[C@H]1C[C@H](N)[C@H](O)[C@H](C)O1 [doxorubicin]
[6]; Day 7, vs Control
  expression level of IL-6: significantly increased
  expression levels of IL-1β and TNF-α: decreased
[6]; Day 14, vs doxorubicin non-administration group
  expression levels of IL-1β, IL-6, and TNF-α: all significantly increased
[6]; Days 7 and 14, Control set to 1
  expression level of Vα14Jα18: decreased
[6]; [13]
  body weight (BW): reduced after Day 7 tended to gradually increase
  left ventricular fractional shortening rate (FS): not improved
[3]
  apoptosis of myocardial cells (TUNEL staining): observed
[3]; Day 14
  left ventricular end-systolic dimension (LVDs): large
  left ventricular fractional shortening rate (FS): small
  WH/TL and LV/TL: significantly reduced

## IFNγ: interferon (IFN)-γ, cytokine added to cultured cells
[7]; IFN-γ 50 ng/mL
  p-Stat1 over time: increased immediately after the stimulation
  pPLN over time: phosphorylated with a slight delay
[7]; IFN-γ 1, 10, and 50 ng/mL
  phosphorylation of PLN: phosphorylated
[8]
  cell death of inflammatory cells: easily caused cell death
[9]
  expression levels and phosphorylation of Stat1: increased
[5]; [14]
  increase in expression levels of Ctgf, Col1a, and Col3a due to TGFβ: inhibited in a dose-dependent manner
  phosphorylation ratio of Smad2 and Smad3: decreased in a dose-dependent manner
[10]
  phosphorylation of Stat1 by αGalCer/DC observed in myocardial tissues, reproduction in cultured myocardial cells: reproduced
[11]
  expression levels of genes (Ctgf, Col1a, and Col3a): significantly decreased in a dose-dependent manner
[12]
  expression levels of Angpt1: increased in a dose-dependent manner

B1: IL4: interleukin-4, cytokine added to cultured cells (protein, UniProt P05112 25-153, looked up)
Interleukin-4: HKCDITLQEIIKTLNSLTEQKTLCTELTVTDIFAASKNTTEKETFCRAATVLRQFYSHHEKDTRCLGATAQQFHRHKQLIRFLKRLDRNLWGLAGLNSCPVKEANQSTLENFLERLKTIMREKYSKCSS
[9]
  phosphorylation of Stat6: increased in a dose-dependent manner
[10]
  phosphorylation of Stat1 by αGalCer/DC observed in myocardial tissues, reproduction in cultured myocardial cells: reproduced
[11]
  expression levels of genes (Ctgf, Col1a, and Col3a): the same as those in the non-administration group
[12]
  expression levels of Angpt1: not increased

B2: IL10: interleukin-10, cytokine added to cultured cells (protein, UniProt P22301 19-178, looked up)
Interleukin-10: SPGQGTQSENSCTHFPGNLPNMLRDLRDAFSRVKTFFQMKDQLDNLLLKESLLEDFKGYLGCQALSEMIQFYLEEVMPQAENQDPDIKAHVNSLGENLKTLRLRLRRCHRFLPCENKSKAVEQVKNAFNKLQEKGIYKAMSEFDIFINYIEAYMTMKIRN
[9]
  phosphorylation of Stat6: not found
[10]
  phosphorylation of Stat1 by αGalCer/DC observed in myocardial tissues, reproduction in cultured myocardial cells: not reproduced
[11]
  expression levels of genes (Ctgf, Col1a, and Col3a): the same as those in the non-administration group
[12]
  expression levels of Angpt1: not increased

B3: IFNγ: interferon (IFN)-γ, cytokine added to cultured cells (protein, UniProt P01579 24-161, looked up)
Interferon gamma: QDPYVKEAENLKKYFNAGHSDVADNGTLFLGILKNWKEESDRKIMQSQIVSFYFKLFKNFKDDQSIQKSVETIKEDMNVKFFNSNKKKRDDFEKLTNYSVTDLNVQRKAIHELIQVMAELSPAAKTGKRKRSQMLFRG
[8]
  cell death of myocardial cells: did not cause cell death
